Measured values: US20100093655A1 (priority 2007, published 2010)
Like-named read-outs stand apart in the source and are kept apart here. Marks after values point to notes of the source that are not given here.

Legend:
[1] = test system: lymphocytes of patients suffering from AIDS; format: cell-based, human; settings: for Cell survival rate (×100%): day 18 vs day 12
[2] = test system: lymphocytes of patients suffering from AIDS; format: cell-based, human; settings: after 6 days (day 12-18)
[3] = test system: HIV-1; settings: for Viral RNA Number of copies/ml: after 6 days (day 12-18); for viral RNA expressed, more than the control: patient two, no therapy
[4] = test system: HIV-1 proviral DNA; assay: Proviral DNA, modified Muprovama test; settings: for Proviral DNA Number of copies/10^6 cells: after 6 days (day 12-18); for Log of proviral HIV DNA: riluzole 0.1 μM (+), mean ± S.D.
[5] = test system: lymphocytes of a patient suffering from AIDS; assay: Apoptosis test (annexin V / propidium iodide, flow cytometry); format: cell-based, human; settings: after 13 days; 10^-7-10^-8 M
Description: The apoptotic cells were measured using propidium iodide and FITC-labeled annexin V, which is a phospholipid-binding protein that binds preferentially to the phosphatidylserine exposed at the surface of the cells in the initial phase of apoptosis, by means of a commercially available kit (Immunotech, Marseille, France). The cells that were propidium-iodide-negative and annexin-V-positive were identified as being apoptotic cells, whereas those that were positive for both propidium iodide and annexin V were considered to be pre-necrotic cells. […] Counting of T cells having CD4+ and CD8+ phenotypes, of the Ki-67 activation marker and of annexin V was carried out by flow cytometry analysis (FACScan, Becton Dickenson, San José, Calif., USA). A series of monoclonal antibodies directed against the following surface markers of T cells was used: CD4-PerCP, CD8-PE (Becton Dickinson, France), Ki-67-FITC (Pharmingen, Los Angeles, Calif., USA), Annexin-FITC (Immunotech, Marseille, France).

[6] = test system: Ki-67 antigen; assay: Expression of the Ki-67 antigen (flow cytometry); format: cell-based, human
[7] = test system: FAS (CD95/APO-1); assay: Apoptosis induced by the anti-FAS antibody (annexin V expression); format: cell-based, human; settings: lymphocytes of patient two
Description: The apoptotic cells were measured using propidium iodide and FITC-labeled annexin V, which is a phospholipid-binding protein that binds preferentially to the phosphatidylserine exposed at the surface of the cells in the initial phase of apoptosis, by means of a commercially available kit (Immunotech, Marseille, France). The cells that were propidium-iodide-negative and annexin-V-positive were identified as being apoptotic cells, whereas those that were positive for both propidium iodide and annexin V were considered to be pre-necrotic cells. The apoptosis caused by the anti-FAS monoclonal antibody (CD95/APO-1) (Immunotech, Marseille, France) was thus measured since it is well known that Fas/Fas ligand apoptosis is amplified in AIDS disease.
Counting of T cells having CD4+ and CD8+ phenotypes, of the Ki-67 activation marker and of annexin V was carried out by flow cytometry analysis (FACScan, Becton Dickenson, San José, Calif., USA). A series of monoclonal antibodies directed against the following surface markers of T cells was used: CD4-PerCP, CD8-PE (Becton Dickinson, France), Ki-67-FITC (Pharmingen, Los Angeles, Calif., USA), Annexin-FITC (Immunotech, Marseille, France).
As indicated above, it is well established that the lymphocytes of HIV-1-infected patients are sensitive to apoptosis induced by the expression of FAS (CD95/APO-1) and of its agonist, the anti-FAS antibody.

[8] = test system: IL-15 gene; assay: Detection of cytokines by real-time PCR; format: cell-based; settings: real-time PCR (FIG. 8)
Description: (§1) Using real-time PCR, 2 μg of total RNA is first reverse-transcribed by means of a kit (High Capacity cDNA Archive kit PN: 4322171, Applied Biosystems, Foster City, Calif.) using random primers and the MultiScribe RT enzyme (5 U/μl) for 2 hours at 37° C. The method of labeling with a SYBR Green, a fluorescent molecule which intercalates into the minor groove of the double helix, was used. The reaction is carried out using a thermocycler (ABI prism 7900 HT, Applied Biosystems, Foster City, Calif.). Each point studied was composed of 5 μl of SYBR Green PCR Master Mix (PN:4344463; Applied Biosystems, Foster City, Calif.), 0.3 μl of sense and antisense primer at a concentration of 10 μM (Proligo), 3.4 μl of Rnase-free water and 1 μl of cDNA. After a denaturation step at 95° C. for 15 min, the amplification is carried out after 40 cycles at 95° C. for 15 s, 60° C. for 30 s and 72° C. for 30 s. At the end of the PCR, a dissociation step corresponding to the amplification peak, which takes place in a cycle of 95° C. for 15 s, 60° C. for 15 s and 95° C. for 15 s, verifies the validity of the primers. The primers for all the genes studied were chosen according to the Oligo Explorer 1.1 amplification conditions. The samples were studied in duplicate in the presence of a negative control, composed of Master Mix and the primers, but without the cDNA. Glyceraldehyde phosphate dehydrogenase (GAPDH) was used as endogenous control gene.
(§2) The effect of the treatments on the levels of mRNA of interest is studied using the method of comparison of CTs (Peinnequin et al., 2004) or number of cycles necessary to reach a threshold fluorescence value (software SDS 2.1, AB prism).
(§3) The sequences of the primers used are the following (Proligo LLC, Boulder, Colo., USA) (forward-reverse): […]

[9] = test system: Toll receptor 3 gene; assay: Detection of cytokines by real-time PCR; format: cell-based; settings: real-time PCR (FIG. 8)
Description: as §1, §2, §3

[10] = test system: interferon-α gene; assay: Detection of cytokines by real-time PCR; format: cell-based; settings: real-time PCR (FIG. 8)
Description: as §1, §2, §3

[11] = test system: interferon-β gene; assay: Detection of cytokines by real-time PCR; format: cell-based; settings: real-time PCR (FIG. 8)
Description: as §1, §2, §3

[12] = test system: IL-15; assay: Measurement of interleukin-15 production (ELISA of supernatant); format: cell-based; settings: riluzole 10^-8 M, culture supernatant, without riluzole 1
[13] = test system: TG 180 line (Crocker sarcoma tumor); assay: Inhibition of tumor cell proliferation (3H thymidine incorporation); format: cell-based; settings: 120 h, 5 days (FIG. 9a)
Description: (§4) After 5 days, the proliferation of the cells is estimated by tritiated (3H) thymidine incorporation. Other tumor lines were used, namely the H9 line (T lymphoma), the NB4 line (line derived from an acute promyelocytic leukemia) and the Jurkat line (T-lymphoma-derived lymphoblastic T cell line).

[14] = test system: H9 line; assay: Inhibition of tumor cell proliferation; format: cell-based; settings: H9 line (FIG. 9d)
Description: as §4

[15] = test system: Jurkat line; assay: Inhibition of tumor cell proliferation; format: cell-based; settings: Jurkat line (FIG. 9b)
Description: as §4

[16] = test system: NB4 line; assay: Inhibition of tumor cell proliferation; format: cell-based; settings: NB4 line (FIG. 9c)
Description: as §4

With Cc1cn([C@H]2C[C@H](N=[N+]=[N-])[C@@H](CO)O2)c(=O)[nH]c1=O [AZT] the “effect on proliferation of the control cells” value ([1]; AZT 10 μg/ml) was “suppressor (antiproliferative) effect”, the “Cell survival rate (×100%)” value ([1]; Individual AR, AZT 1 μg/ml) was 5 ×100% and the “Cell survival rate (×100%)” value ([1]; Individual AR, AZT 10 μg/ml) was 4 ×100%. For the same compound, the “Cell survival rate (×100%)” value ([1]; Individual PE, AZT 10 μg/ml) was 3 ×100%, the “Cell survival rate (×100%)” value ([1]; Individual PR, AZT 1 μg/ml) was 12 ×100% and the “Cell survival rate (×100%)” value ([1]; Individual PR, AZT 10 μg/ml) was 13 ×100%. The “Cell survival rate (×100%)” value ([1]; Individual beta, AZT 1 μg/ml) was 3 ×100%, the “Viability % dead cells” value ([2]; Individual AR, AZT 1 μg/ml) was 28% and the “Viability % dead cells” value ([2]; Individual AR, AZT 10 μg/ml) was 25%. For the same compound, the “Viability % dead cells” value ([2]; Individual PR, AZT 1 μg/ml) was 19%, the “Viability % dead cells” value ([2]; Individual PR, AZT 10 μg/ml) was 20% and the “Viability % dead cells” value ([2]; Individual beta, AZT 1 μg/ml) was 29%. For the same compound, the “Viability % dead cells” value ([2]; Individual beta, AZT 10 μg/ml) was 20%, the “antiviral effect on the control cells” value ([3]; AZT 1 μg/ml) was “partial, or even equivalent” and the antiviral effect ([3]; AZT 10 μg/ml) was “exerts an antiviral effect”. For the same compound, the “Viral RNA Number of copies/ml” value ([3]; Individual AR, AZT 1 μg/ml) was 35 000 copies/ml, the “Viral RNA Number of copies/ml” value ([3]; Individual AR, AZT 10 μg/ml) was less than 100 copies/ml and the “Viral RNA Number of copies/ml” value ([3]; Individual PR, AZT 1 μg/ml) was 7000 copies/ml. The “Viral RNA Number of copies/ml” value ([3]; Individual PR, AZT 10 μg/ml) was less than 100 copies/ml, the “Proviral DNA Number of copies/10^6 cells” value ([4]; Individual AR, AZT 1 μg/ml) was 6.1 Log copies/10^6 cells and the “Proviral DNA Number of copies/10^6 cells” value ([4]; Individual AR, AZT 10 μg/ml) was 5.4 Log copies/10^6 cells. The “Proviral DNA Number of copies/10^6 cells” value ([4]; Individual PR, AZT 1 μg/ml) was 4.9 Log copies/10^6 cells and the “Proviral DNA Number of copies/10^6 cells” value ([4]; Individual PR, AZT 10 μg/ml) was 4.8 Log copies/10^6 cells.
Nc1nc2ccc(OC(F)(F)F)cc2s1 [riluzole, 6-(trifluoromethoxy)-2-aminobenzothiazole] was tested, and the “inhibition of apoptosis of CD4 lymphocytes” value [5] was 80%, the “inhibition of apoptosis of CD8 lymphocytes” value [5] was 70% and the “inhibition of total apoptosis expressed by all the lymphocytes” value [5] was 66%. For the same compound, the “inhibition of Ki-67 antigen expression by all of the lymphocytes” value ([6]; after 13 days in the presence of riluzole (FIG. 6A)) was roughly 33%, the “inhibition of Ki-67 antigen expression by the CD8 lymphocytes” value ([6]; after 13 days in the presence of riluzole (FIG. 6B)) was roughly 37% and the “inhibition of Ki-67 antigen expression by the CD4 lymphocytes” value ([6]; after 13 days in the presence of riluzole (FIG. 6C)) was roughly 50%. The inhibition at 0.01 µM ([7]; Homo sapiens, Lymphocyte, 10^-8 M) was 62%, the “apoptosis (annexin V expression) of cells coupled to anti-FAS antibody” value ([7]; 10^-8 M, control 50%) was 15% and the “percentage inhibition of apoptosis, cells cultured without anti-FAS antibody” value ([7]; compared with the 62% inhibition with antibody) was “comparable”. The “expression of the IL-15 gene” value [8] was “capable of inducing the expression”, the “expression of the Toll receptor 3 gene” value [9] was “capable of inducing the expression” and the “expression of the interferon-α gene” value [10] was “capable of inducing the expression”. The “expression of the interferon-β gene” value [11] was “capable of inducing the expression”, the “production of IL-15” value [12] was 6 pg/mL and the “production of IL-15” value ([12]; listed as Riluzole) was 15* pg/ml. The inhibition at 100 µM ([13]; 10^-4 M) was 86%, the inhibition at 10 µM ([13]; 10^-5 M (first mention)) was 40% and the inhibition at 10 µM ([13]; 10^-5 M (second mention)) was 30%. For the same compound, the “inhibition of the proliferation of tumor cells” value (“inhibition … of tumor cells” below) [14] was “inhibition of the proliferation of these tumor cells is also observed”, the “inhibition … of tumor cells” value [15] was “inhibition of the proliferation of these tumor cells is also observed” and the “inhibition … of tumor cells” value [16] was “inhibition of the proliferation of these tumor cells is also observed”. The “virus measurement versus control” value ([3]; patient one, 10^-7 M, days 3 and 6 of culture) was “virtually the same”, the “HIV-1 RNA of conditioned cultures versus controls” value ([3]; patient one, 10^-7 M, days 10 and 13 (FIG. 1C)) was “twice as high” and the “viral RNA expressed, more than the control” value ([3]; day 13 (FIG. 3C)) was “up to 0.7 log10”. The “viral RNA expressed, more than the control” value ([3]; from the 6th day, doses 10^-8 M, 10^-7 M and 10^-8 M as printed) was 0.8 logn, the “HIV-1 RNA in culture supernatants, increase” value ([3]; untreated patient one, 10^-7 M, day 13 of culture) was 100% and the “Log of proviral HIV DNA” value ([4]; TT(+), V: 44.000, Day 3 of culture) was 2 ± 0.3 Log copies [cp]/10^6 cells. For the same compound, the “Log of proviral HIV DNA” value ([4]; TT(+), V: 44.000, Day 6 of culture) was 0.3 ± 0.1 Log copies [cp]/10^6 cells, the “Log of proviral HIV DNA” value ([4]; TT(+), V: 250, Day 3 of culture) was 3 ± 0.2 Log copies [cp]/10^6 cells and the “Log of proviral HIV DNA” value ([4]; TT(+), V: 250, Day 6 of culture) was 0.2 ± 0.1 Log copies [cp]/10^6 cells. The “Log of proviral HIV DNA” value ([4]; TT(−), V: 68.000, Day 3 of culture) was 3.7 ± 0.2 Log copies [cp]/10^6 cells and the “Log of proviral HIV DNA” value ([4]; TT(−), V: 68.000, Day 6 of culture) was 0.7 ± 0.1 Log copies [cp]/10^6 cells.
